Reference: US7723324B2 (priority 2003, dated 2010)

Tests used:
[1] = target: T1, peripheral benzodiazepine receptors (Rattus norvegicus, UniProt P16257); test: benzodiazepine receptor binding (test of LeFur et al.), peripheral
T1 construct: from tissue; Rat heart membranes according to own knowledge of the cited Le Fur et al. method
Description: Compounds of the invention were assessed for their binding to the benzodiazepine receptor by the test of Speth et al. [Life Sci. 24, 351 (1979)] for central benzodiazepine receptors and LeFur et al. [Life Sci. 33, 449 (1983)] for peripheral receptors. The compounds were tested first at 1.00E-09, 1.0E-07 and 1.0E-05 M in single determination. […] The specific ligand binding to the receptor is defined as the difference between the total binding and the nonspecific binding determined in the presence of an excess of unlabelled ligand. In each experiment, the respective reference compound was tested concurrently with the test compounds in order to assess the assay suitability. It was tested at several concentrations (for IC50 value determination), and the data were compared with historical values. The assay was rendered valid if suitability criteria were met.
However, the invention is not limited to the compounds found in the Tables.

[2] = maze test, which tests anxiety; type: in vivo; settings: 10 mg/kg
Description: The compounds of Example 1d (also found in Example 6d), Example 22d, and Example 35d, were also tested in vivo using the maze test, which tests anxiety [Montgomery, J. Comparative and Physiological Psychology 48, 254-60 (1955); Handley et al., Naunyn-Schmiedeberg's Archives of Pharmacology 327, 1-5 (1984); Lister, Psychopharm. 92, 180-85 (1987); Pellow et al., J. Neuroscience Methods 14, 149-67 (1985); Rodgers et al., Ethology and Psychopharmacology, S. J. Cooper and C. A. Hendrie (eds), John Wiley & Sons, Ltd., 9-43 (1994); and Trullas et al., Psychopharm. 111, 323-31 (1993)]. The results of the maze test for these compounds are found in FIGS. 1a, 1b, 2a, 2b, 3a, and 3b. FIGS. 1a, 2a, and 3a are graphs of the Number of Entries in Open Arms vs. mg/kg (dose of administered compound). FIGS. 1b, 2b, and 3b plot the Percent of Time Spent in Open Arms vs. mg/kg (dose of administered compound). […] The results of the maze test are accepted by persons of skill in the art as predictive of therapeutic utility.

T1 sequence (P16257 whole entry): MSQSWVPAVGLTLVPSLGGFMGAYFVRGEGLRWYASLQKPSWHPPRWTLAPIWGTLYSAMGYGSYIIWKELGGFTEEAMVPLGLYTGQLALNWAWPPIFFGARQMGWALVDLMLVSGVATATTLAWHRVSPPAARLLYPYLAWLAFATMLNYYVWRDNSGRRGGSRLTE

Row | SMILES | IC50 ([1]; Table 1a) [nM] | further results
1 | Cc1ccc(-c2nc3ccc(C)cn3c2CC(=O)c2cccn2C)cc1 | > 10000 | 
2 | Cc1ccc(-c2nc3ccc(C)cn3c2CC(=O)c2c(C)nc3ccccn23)cc1 | 1600 | 
3 | Cc1ccc(-c2nc3ccc(C)cn3c2CC(=O)c2cc(C)n[nH]2)cc1 | > 10000 | 
4 | Cc1ccc(-c2nc3ccc(C)cn3c2CC(=O)c2cc3ccccc3n2C)cc1 | 540 | 
5 | Cc1ccc(-c2nc3ccc(C)cn3c2CC(=O)c2cnn3c(C)cc(C)nc23)cc1 | > 10000 | 
6 | COc1ccc(-c2nc3ccc(C)cn3c2CC(=O)c2cccn2C)cc1 |  | IC50 ([1]; Table 1b): 1700 nM
7 | COc1ccc(-c2nc3ccc(C)cn3c2CC(=O)c2cnn3c(C)cc(C)nc23)cc1 |  | IC50 ([1]; Table 1b): > 10000 nM
8 | Cc1ccc(-c2nc3ccc(C)cn3c2C2CCN(C)C2=O)cc1 (stereo not shown) |  | IC50 ([1]; Table 2): > 10000 nM
9 | Cc1ccc(-c2nc3ccc(C)cn3c2CC(=O)c2cccs2)cc1 [Example 1d, 2-(6-Methyl-2-p-tolyl-imidazo[1,2-a]pyridin-3-yl)-1-thiophen-2-yl-ethanone] |  | maze test activity (Number of Entries in Open Arms, Percent of Time Spent in Open Arms) [2]: statistically significant activity
10 | COc1ccsc1C(=O)Cc1c(-c2ccc(C)cc2)nc2ccc(C)cn12 [Example 22D, 1-(3-Methoxy-thiophen-2-yl)-2-(6-methyl-2-p-tolyl-imidazo[1,2-a]pyridin-3-yl)-ethanone] |  | maze test activity (Number of Entries in Open Arms, Percent of Time Spent in Open Arms) [2]: statistically significant activity
